pIC50: −log10 of the molar value.

For test [1], the target named is T1, CXCR3 (Homo sapiens, UniProt P49682).
T1 sequence (P49682 1-368): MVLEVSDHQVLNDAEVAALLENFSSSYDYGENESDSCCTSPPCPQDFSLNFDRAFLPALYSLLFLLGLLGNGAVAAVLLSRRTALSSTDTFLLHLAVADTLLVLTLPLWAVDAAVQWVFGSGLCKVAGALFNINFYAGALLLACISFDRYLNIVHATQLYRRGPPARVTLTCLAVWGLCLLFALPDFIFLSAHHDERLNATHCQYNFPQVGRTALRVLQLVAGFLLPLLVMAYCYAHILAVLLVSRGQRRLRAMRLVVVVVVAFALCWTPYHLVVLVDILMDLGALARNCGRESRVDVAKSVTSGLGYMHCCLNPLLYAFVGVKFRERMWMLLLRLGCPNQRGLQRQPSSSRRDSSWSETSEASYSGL
In words: Chemotaxis assay IP10, L1.2 recombinant cells expressing hCXCR3. It counts as cell-based. The note with it: L1.2 hCXCR3 cells, IP10 around 0.3 nM, 4 hours.

For test [2], the target named is T1, CXCR3. The experiment in a line: Radioligand binding, scintillation proximity assay ([125I]IP-10 or [125I]I-TAC competition) on CHO-CXCR3 cell membranes. Set-up: host or cells: CHO cells stably expressing hCXCR3. Particulars: [125I]IP-10, human CXCR3 cell membranes, Cheng-Prusoff; read-out: Binding Ki (μM) IP10. The protocol:
Human chinese hamster ovary (CHO) cell line stably expressing hCXCR3 was purchased from Euroscreen (Belgium) and culture in HAM's F12 (Invitrogen) containing 10% heat inactivated fetal calf serum (Cancerra, Australia), 50 units ml−1 penicillin, 50 μml−1 streptomycin, (Invitrogen, USA) and 400 μg/ml geneticin (G418) (Calbiochem, San Diego), according to the manufacturer.
CHO cells expressing the human CXCR3 were disrupted by nitrogen cavitation (Parr Instruments, USA) at 4° C., 800 p.s.i. for 30 min in 50 mM Tris-HCl pH 7.5, 2 mM EDTA, 250 mM Sucrose and protease inhibitors (Roche). Cell membranes were prepared by differential centrifugation (200×g for 10 min, then 100000×g for 60 min). Membranes pellets were re-suspended in 50 mM Tris-HCL pH 7.4, 1 mM EDTA, 10 mM MgCl2, 250 mM sucrose and inhibitor of proteases. Purified CHO-CXCR3 cell membranes were frozen in liquid nitrogen and stored at −80° C.
A scintillation proximity assay was used for radioligand competition and saturation binding assays. For each assay point, 1 to 5 μg of human CXCR3 cell membranes were incubated in a final volume of 100 μl in 96 well plates (Corning, USA) for 120 minutes with shaking at room temperature in presence of 100 μg of wheat germ agglutinin-coated scintillation proximity assay beads (WGA-SPA, RPNQ0001, GE Healthcare), 0.05-0.1 nM [125I]I-TAC (Perkin Elmer, 1366Cie/mmol) or 0.1 nM [125I]IP-10 (Perkin Elmer, 2200 Cie/mmol) in binding buffer (50 mM HEPES/KOH pH 7.4, 10 mM MgCl2, 1 mM CaCl2, 0.1% bovine serum albumin (BSA), 100 mM NaCl with protease inhibitor cocktail tablets (Roche). Assay was performed in presence of 1% dimethylsulphoxide (Me2SO). Binding activity was determined using a 1450 Micro-beta scintillation counter (Wallac, UK). Ki values were calculated using the Cheng-Prusoff equation (Cheng and Prusoff, 1973) and represent the average of at least three independent dose response experiments.

The target in test [3] is T1, CXCR3. In words: CXCR3 Ca2+ mobilization (FLIPR), stable hCXCR3-CHO cell line, I-TAC stimulated. It counts as cell-based. Set-up: host or cells: CHO cells stably expressing hCXCR3. Particulars: hCXCR3-CHO cells, I-TAC 100 nM stimulated Ca2+ response; read-out: Ca-ITAC. The essentials: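 CHO cells stably expressing hCXCR3, grown 18 hours after plating, loaded with calcium indicator dye 60 minutes; compounds equilibrated 20 minutes at room temperature. Fluorescence change evoked by 100 nM I-TAC read on FLIPR; activity expressed as percent of I-TAC response without compound (100%).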
(In general: A change in cytosolic calcium serves as a functional read-out for many receptors and channels.)

Test [4] deals with T1, CXCR3. In words: Chemotaxis assay ITAC (CXCL11), L1.2-CXCR3 cells. Particulars: 1 nM CXCL11 (I-TAC), 4 hours. The format is cell-based. Set-up: expressed in transfected cells. The method in brief:
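Murine pre-B L1.2 cells stably expressing human CXCR3, pretreated 24 h with 5 mM butyric acid, preincubated with compound 30 min at 37 °C in 1% DMSO. Migration toward 1 nM CXCL11 (also with compound) through 8 μm filters for 4 h at 37 °C; migrated cells counted with CyQuant GR dye.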

Consider `O=C(NCc1cccc(Cl)c1)c1ccc(CN(Cc2ccccc2)S(=O)(=O)c2ccc(Cl)cc2)nc1` [Example 8, 6-({benzyl[(4-chlorophenyl)sulfonyl]amino}methyl)-N-(3-chlorobenzyl)nicotinamide], for which, in test [1], the IC50 (commonly the concentration that gives 50% inhibition) is 0.369 µM. In test [2], the inhibition constant Ki (in general, the dissociation constant of the complex between target and ligand, obtained from inhibition or displacement) stood at 0.64 µM.
For `O=C(NC1(c2ccccc2)CC1)c1ccc(CN(Cc2ccccc2)S(=O)(=O)c2ccc(Cl)cc2)cc1` [Example 10, 4-({benzyl[(4-chlorophenyl)sulfonyl]amino}methyl)-N-(1-phenylcyclopropyl)benzamide] the same measures were 0.238 µM and 0.155 µM.
For `O=C(NC1(c2ccccc2)CC1)c1ccc(CN(Cc2ccccn2)S(=O)(=O)c2ccc(Cl)cc2)cc1` [Example 40, 4-{[(4-Chloro-benzenesulfonyl)-pyridin-2-ylmethyl-amino]-methyl}-N-(1-phenyl-cyclopropyl)-benzamide], the pIC50 in test [3] is 7.05; in test [4], 7.28. In test [1], the IC50 turned out to be 0.025 µM. The Ki in test [2] amounted to 0.015 µM.
`CCOc1ccc(S(=O)(=O)N(Cc2ccccc2)Cc2ccc(C(=O)NCC3CC3)cc2)cc1` [Example 18, 4-{[Benzyl-(4-ethoxy-benzenesulfonyl)-amino]-methyl}-N-cyclopropylmethylbenzamide]: the pIC50 in test [4] was 5.77. Besides, the Ki in test [2] is 0.78 µM.
`O=C(NS(=O)(=O)c1cccc(Cl)c1)c1ccc(CN(Cc2ccccc2)S(=O)(=O)c2ccc(Cl)cc2)cc1` [Example 12, N-[(3-chlorophenyl)sulfonyl]-4-{[benzyl[(4-chlorophenyl)sulfonyl]amino]methyl}benzamide]: the IC50 in test [1] worked out at 0.865 µM. Moreover, the Ki in test [2] is 1.65 µM.
On to `N#Cc1ccc(S(=O)(=O)N(Cc2ccc(C(=O)NC3(c4ccccc4)CC3)cc2)Cc2ccccn2)cc1` [Example 44], for which the pIC50 was 6.57 in test [3] and 7.48 in test [4]. In test [1], the IC50 amounted to 0.013 µM. The Ki in test [2] came to 0.01 µM.
With `O=S(=O)(c1ccc(Cl)cc1)N(Cc1ccc(-c2nnn[nH]2)cc1)Cc1ccccn1` [Example 16, 4-chloro-N-(pyridin-2-ylmethyl)-N-[4-(1H-tetrazol-5-yl)benzyl]benzenesulfonamide], in test [1], the IC50 was found to be 0.496 µM. The Ki in test [2] turned out to be 0.092 µM.
For `CCOc1ccc(S(=O)(=O)N(Cc2ccccc2)Cc2ccc(C(=O)NCc3ccccc3)cc2)cc1` [Example 33], the pIC50 in test [3] is 6.28. Also, in test [2], the inhibitory constant (Ki) came to 0.197 µM.
For `O=C(NS(=O)(=O)c1cccc(Cl)c1)c1ccc(CN(Cc2ccccn2)S(=O)(=O)c2ccc(Cl)cc2)cc1` [Example 13, N-[(3-chlorophenyl)sulfonyl]-4{[[(4-chlorophenyl)sulfonyl](pyridin-2-ylmethyl)amino]methyl}benzamide], the concentration for half-maximal inhibition (IC50) in test [1] came to 0.138 µM. For the same compound, the inhibitory constant (Ki) in test [2] was 0.066 µM.
For the compound `O=C(NS(=O)(=O)Cc1ccccc1)c1ccc(CN(Cc2ccccn2)S(=O)(=O)c2ccc(Cl)cc2)cc1` [Example 11, N-(benzylsulfonyl)-4-{[[(4-chlorophenyl)sulfonyl](pyridin-2-ylmethyl)amino]methyl}benzamide], the concentration for half-maximal inhibition (IC50) in test [1] was 0.404 µM. For the same compound, the Ki in test [2] was 0.1 µM.
Regarding `O=C(NCc1cccc(Cl)c1)c1ccc(CN(Cc2ccccn2)S(=O)(=O)c2ccc(Cl)cc2)cc1` [Example 6, N-(3-chlorobenzyl)-4-{[[(4-chlorophenyl)sulfonyl](pyridin-2-ylmethyl)amino]methyl}benzamide], the inhibition constant Ki in test [2] is 0.123 µM.
As to `CCOc1ccc(S(=O)(=O)N(Cc2ccc(-c3nnn[nH]3)cc2)Cc2ccccn2)cc1` [Example 42, 4-Ethoxy-N-(pyridin-2-ylmethyl)-N-[4-(2H-tetrazol-5-yl)benzyl]benzenesulfonamide], the pIC50 in test [3] was 6.28; in test [4] it was 5.99. Moreover, in test [2], the Ki was found to be 0.161 µM.
As to `O=C(NCc1cccs1)c1ccc(CN(Cc2ccccc2)S(=O)(=O)c2ccc(Cl)cc2)cc1` [Example 7, 4-({benzyl[(4-chlorophenyl)sulfonyl]amino}methyl)-N-(2-thienylmethyl)benzamide], the half-maximal inhibitory concentration (IC50) in test [1] was 0.192 µM. Further, the inhibition constant Ki in test [2] came out at 0.299 µM.
For `O=C(NCC1CC1)c1ccc(CN(Cc2ccccn2)S(=O)(=O)c2ccc(Cl)cc2)cc1` [Example 5, 4-{[[(4-chlorophenyl)sulfonyl](pyridin-2-ylmethyl)amino]methyl}-N-(cyclopropylmethyl)benzamide] the same measures were 0.2 µM and 0.168 µM.

The record behind these values is patent US20110028509A1, “Sulfonamides” (MERCK SERONO SA, priority 2008, published 2011).
